Values quoted from earlier work in US6495562B1, “Naphthamidine urokinase inhibitors” (Abbott Laboratories, priority 2000, dated 2002).

What was measured:
tumor metastasis = conditions: Anticancer Res. 1988, 8, 1373-1376
angiogenesis = conditions: J. Cell Biol. 1991, 115[3 Pt 2], 402a

SMILES: N=C(N)NC(=O)c1nc(Cl)c(N)nc1N [Amiloride]
- inhibition of tumor metastasis in vivo (tumor metastasis): inhibit
- inhibition of angiogenesis in vitro (angiogenesis): inhibit
